In patent US9157062B2, “Compositions and methods for promoting the generation of PDX1+ pancreatic cells” (President and Fellows of Harvard College, priority 2008, dated 2015):

Experiments:
[1] = test system: HUES8 cells; assay: Differentiation of HUES8 cells to definitive endoderm (Sox17 immunostaining); format: cell-based, human; details: 300 nM ILV, 3 days, in the presence or absence of Wnt3a/Activin
Procedure: ILV was next tested at different steps of the hESC differentiation process (see FIG. 1a). ILV was tested on the differentiation of HUES8 cells to definitive endoderm population, which was assessed by immunostaining with Sox17 antibody.
Secondly, ILV was examined on the definitive endoderm population containing 70% Sox17^+ cells derived from HUES8 by Wnt3a/Activin treatment (D'Amour et al., 2006). […] Thus, ILV functions by inducing pancreatic specification of hESC-derived definitive endoderm population.

[2] = test system: protein kinase C (PKC) signaling; details: some cell lines; Heikkila and Akerman, 1989; Hirota et al., 1987; cited from earlier work
[3] = test system: HUES8-derived population; assay: Illumina microarray of markers expressed in non-pancreatic tissues; format: cell-based, human; details: 300 nM ILV, 4 days
Procedure: cRNA samples were prepared with an Illumina TotalPrep RNA Amplification Kit (Ambion). Data was acquired with an Illumina beadstation 500 (Illumina) and analyzed with beadstudio (Illumina).
To further characterize the cells induced by ILV, beyond Pdx1^+ expression, multiple pancreatic lineage markers were examined by immunocytochemistry and qRT-PCR. More than 96% of the Pdx1^+ cells following ILV treatment show significant expression of other pancreatic progenitor markers, including FOXA2 and HNF6 (FIG. 4a). After ILV treatment, Pdx1, HNF6, Ptfla, Sox9, FOXA2 mRNAs level increase (FIG. 4b).

[4] = test system: ERK1/2 phosphorylation at Thr-202/Tyr-204; assay: Western blot of ERK1/2 phosphorylation; format: cell-based, human; details: 300 nM ILV, 1 hour, compared to DMSO-treated control
Procedure: Cells were lysed in 1×RIPA lysis buffer (Upstate Biotechnology) with 1% protease inhibitor mixture (Sigma)/1% phosphatase inhibitor mixture (Sigma)/1% phosphatase inhibitor mixture II (Sigma). Proteins were separated by 4-20% Tris-Glycine SDS/PAGE (Biorad) under denaturing conditions and transferred to a nitrocellulose membrane. After blocking with 5% nonfat milk in DPBS, the membrane was incubated with primary antibodies against phospho-ERK1/2 (Thr-202/Tyr-204) (1:2,000, Sigma) and ERK1/2 (1:1,000, Cell Signaling) overnight at 4° C. The membrane was then washed, incubated with anti-mouse/rabbit peroxidase-conjugated affinity-purified secondary antibody (1:1000, Cell Signaling) at room temperature for 1 hour, and developed by SuperSignal chemiluminescence (Pierce).
Experiments were performed to monitor downstream signaling by PKC. Since ERK signaling has been reported to be regulated by PKC (Ueda et al., 1996), the activity of ERK signaling was examined with Western blotting to detect the phosphorylation of ERK1/2 at Thr-202/Tyr-204. After 1 hour treatment with 300 nM ILV, the phosphorylation of ERK1/2 increased compared to the DMSO-treated control (FIG. 8a). In addition, MEK/ERK inhibitors, PD098059 or U0126, both block ILV's effect. […]

[5] = test system: mouse ESC-derived definitive endoderm with Pdx1-GFP reporter; assay: Pancreatic differentiation of mESC-derived definitive endoderm (Pdx1-GFP reporter); format: cell-based; details: 300 nM ILV
Procedure: Mouse embryonic stem cells (mESCs) with Pdx1-GFP reporter are routinely cultured on irradiated CF-1 MEF feeder cells in KnockOut DMEM (Invitrogen) supplemented with 15% FBS (Hyclone), 2 mM L-Glu, 1.1 mM 2-mercaptoethanol, 1 mM nonessential amino acids, 1×PS and 10^3 unit LIF (Chemicon). Cells are passaged at the ratio of 1:12 every 3 days by using 0.25% trypsin-EDTA (Invitrogen).
To generate a definitive endoderm population, mESCs were plated on gelatin-coated surface at 2500 cell/cm^2 after depletion of MEF feeder cells. Then, the cells were treated with 1000 ng/ml recombinant mouse Nodal (R&D systems) in A-RPMI supplemented with 1×L-Glu, 1×L-PS and 0.2% FBS for 5 days. […]
Total RNAs were extracted with the RNeasy Mini Kit (Qiagen) and reverse-transcribed using SuperScript III RT-PCR system (Invitrogen) according to the manufacturer's protocol. One microliter of cDNA sample was PCR amplified with QuantiFast SYBR Green PCR Kit (Qiagen) and analyzed with DNA engine Opticon2 (MJ Research).
To determine whether ILV functions on other species, the effect of ILV on a population of mouse ESCs (mESCs) that have been induced to form definitive endoderm was examined. […] The increase of Pdx1 expression can be further confirmed with immunostaining (FIG. 3b) and quantitative RT-PCR (qRT-PCR, FIG. 3c). […]

## (−)-Indolactam V [ILV]
[1]
  differentiation to definitive endoderm (Sox17) versus DMSO control: no detectable difference
[2]
  PKC signaling: activates
[3]
  markers expressed in non-pancreatic tissues or organs (Sox7, Cdx2, Ces2, FABP2, AFP, albumin, BARX1, Troponin T, Sox2): either decrease or do not significantly change
[4]
  phosphorylation of ERK1/2: increased
[5]; 6 days
  percentage of GFP+ cells: 50.0±6.1%
[5]; qRT-PCR
  expression of mRNAs of pancreatic markers (Pdx1, Cdcp1, Ptfla, HNF6, FOXA2, Nkx2.2): increase
